Experimental data as given in ChEMBL document CHEMBL3217526, “Bioguided discovery and pharmacophore modeling of the mycotoxic indole diterpene alkaloids penitrems as breast cancer proliferation, migration, and invasion inhibitors” (Medchemcomm, 2013).

Legend:
[1] = test system: Caenorhabditis elegans; experiment: Toxicity in L1 stage Caenorhabditis elegans N2 assessed as viability and reproduction at 10 uM; assay type: organism-based; conditions: in vivo
[2] = test system: Caenorhabditis elegans; experiment: In vivo inhibition of BK channel in L1 stage Caenorhabditis elegans N2 assessed as increase in reversals at 1 uM; assay type: organism-based
[3] = test system: Caenorhabditis elegans; experiment: Toxicity in L1 stage Caenorhabditis elegans N2 assessed as viability and reproduction at 50 uM; assay type: organism-based; conditions: in vivo
[4] = Cytotoxicity against human OVCAR3 cells assessed as growth inhibition at 10 uM; assay type: functional; conditions: OVCAR-3, read-out: GI
[5] = Cytotoxicity against human OVCAR8 cells assessed as growth inhibition at 10 uM; assay type: functional; conditions: OVCAR-8, read-out: GI
[6] = Cytotoxicity against human OVCAR5 cells assessed as growth inhibition at 10 uM; assay type: functional; conditions: OVCAR-5, read-out: GI
[7] = Cytotoxicity against human UACC62 cells assessed as growth inhibition at 10 uM; assay type: functional; conditions: UACC-62, read-out: GI
[8] = test system: NCI-H23; experiment: Cytotoxicity against human NCI-H23 cells assessed as growth inhibition at 10 uM; assay type: functional; conditions: read-out: GI
[9] = test system: HCC 2998; experiment: Cytotoxicity against human HCC2998 cells assessed as growth inhibition at 10 uM; assay type: functional; conditions: read-out: GI
[10] = test system: RPMI-8226; experiment: Cytotoxicity against human RPMI8226 cells assessed as growth inhibition at 10 uM; assay type: functional; conditions: read-out: GI
[11] = test system: LOX IMVI; experiment: Cytotoxicity against human LOXIMVI cells assessed as growth inhibition at 10 uM; assay type: functional; conditions: read-out: GI
[12] = Cytotoxicity against human UACC257 cells assessed as growth inhibition at 10 uM; assay type: functional; conditions: UACC-257, read-out: GI
[13] = test system: NCI-H226; experiment: Cytotoxicity against human NCI-H226 cells assessed as growth inhibition at 10 uM; assay type: functional; conditions: read-out: GI
[14] = test system: A549; experiment: Cytotoxicity against human A549 cells assessed as growth inhibition at 10 uM; assay type: functional; conditions: read-out: GI
[15] = test system: DU-145; experiment: Cytotoxicity against human DU145 cells assessed as growth inhibition at 10 uM; assay type: functional; conditions: read-out: GI
[16] = test system: SNB-19; experiment: Cytotoxicity against human SNB19 cells assessed as growth inhibition at 10 uM; assay type: functional; conditions: read-out: GI
[17] = Cytotoxicity against human EKVX cells assessed as growth inhibition at 10 uM; assay type: functional; conditions: read-out: GI
[18] = test system: HT-29; experiment: Cytotoxicity against human HT-29 cells assessed as growth inhibition at 10 uM; assay type: functional; conditions: read-out: GI
[19] = test system: NCI-H460; experiment: Cytotoxicity against human NCI-H460 cells assessed as growth inhibition at 10 uM; assay type: functional; conditions: read-out: GI
[20] = test system: M14; experiment: Cytotoxicity against human M14 cells assessed as growth inhibition at 10 uM; assay type: functional; conditions: read-out: GI
[21] = test system: 786-0; experiment: Cytotoxicity against human 786-0 cells assessed as growth inhibition at 10 uM; assay type: functional; conditions: read-out: GI
[22] = test system: HOP-62; experiment: Cytotoxicity against human HOP62 cells assessed as growth inhibition at 10 uM; assay type: functional; conditions: read-out: GI
[23] = test system: ACHN; experiment: Cytotoxicity against human ACHN cells assessed as growth inhibition at 10 uM; assay type: functional; conditions: read-out: GI
[24] = test system: MCF7; experiment: Antiproliferative activity against human MCF7 cells after 72 hrs by MTT assay; assay type: functional, cell-based; conditions: MCF7, 72 h
[25] = test system: COLO 205; experiment: Cytotoxicity against human COLO205 cells assessed as growth inhibition at 10 uM; assay type: functional; conditions: read-out: GI
[26] = test system: KM12; experiment: Cytotoxicity against human KM12 cells assessed as growth inhibition at 10 uM; assay type: functional; conditions: read-out: GI
[27] = test system: SK-MEL-28; experiment: Cytotoxicity against human SK-MEL-28 cells assessed as growth inhibition at 10 uM; assay type: functional; conditions: read-out: GI
[28] = Cytotoxicity against human HCT15 cells assessed as growth inhibition at 10 uM; assay type: functional; conditions: HCT-15, read-out: GI
[29] = test system: SF-268; experiment: Cytotoxicity against human SF268 cells assessed as growth inhibition at 10 uM; assay type: functional; conditions: read-out: GI
[30] = test system: MOLT-4; experiment: Cytotoxicity against human MOLT4 cells assessed as growth inhibition at 10 uM; assay type: functional; conditions: read-out: GI
[31] = test system: BT-549; experiment: Cytotoxicity against human BT549 cells assessed as growth inhibition at 10 uM; assay type: functional; conditions: read-out: GI
[32] = test system: SN12C; experiment: Cytotoxicity against human SN12C cells assessed as growth inhibition at 10 uM; assay type: functional; conditions: read-out: GI
[33] = test system: MDA-MB-231; experiment: Antimigratory activity in human MDA-MB-231 cells after 24 hrs by wound healing assay; assay type: functional, cell-based; conditions: MDA-MB-231, 24 h
[34] = test system: SK-MEL-5; experiment: Cytotoxicity against human SK-MEL-5 cells assessed as growth inhibition at 10 uM; assay type: functional; conditions: read-out: GI
[35] = test system: NCI-H322M; experiment: Cytotoxicity against human NCI-H322M cells assessed as growth inhibition at 10 uM; assay type: functional; conditions: read-out: GI
[36] = test system: CCRF-CEM; experiment: Cytotoxicity against human CCRF-CEM cells assessed as growth inhibition at 10 uM; assay type: functional; conditions: read-out: GI
[37] = test system: SW-620; experiment: Cytotoxicity against human SW620 cells assessed as growth inhibition at 10 uM; assay type: functional; conditions: read-out: GI
[38] = test system: K562; experiment: Cytotoxicity against human K562 cells assessed as growth inhibition at 10 uM; assay type: functional; conditions: read-out: GI
[39] = test system: Malme-3M; experiment: Cytotoxicity against human MALME-3M cells assessed as growth inhibition at 10 uM; assay type: functional; conditions: read-out: GI
[40] = test system: SK-MEL-2; experiment: Cytotoxicity against human SK-MEL-2 cells assessed as growth inhibition at 10 uM; assay type: functional; conditions: read-out: GI
[41] = Cytotoxicity against human OVCAR4 cells assessed as growth inhibition at 10 uM; assay type: functional; conditions: OVCAR-4, read-out: GI
[42] = Cytotoxicity against human NCI-ADR-RES cells assessed as growth inhibition at 10 uM; assay type: functional; conditions: read-out: GI
[43] = test system: U-251; experiment: Cytotoxicity against human U251 cells assessed as growth inhibition at 10 uM; assay type: functional; conditions: read-out: GI
[44] = test system: MDA-MB-231; experiment: Antiproliferative activity against human MDA-MB-231 cells after 72 hrs by MTT assay; assay type: functional, cell-based; conditions: MDA-MB-231, 72 h
[45] = test system: T47D; experiment: Cytotoxicity against human T47D cells assessed as growth inhibition at 10 uM; assay type: functional; conditions: read-out: GI
[46] = test system: MDA-MB-231; experiment: Antiinvasive activity against human MDA-MB-231 cells assessed as inhibition of cell invasion at 15 uM after 24 hrs by BME Cell invasion assay kit; assay type: functional; conditions: MDA-MB-231, 24 h
[47] = Cytotoxicity against human Hs578T cells assessed as growth inhibition at 10 uM; assay type: functional; conditions: Hs-578T, read-out: GI
[48] = test system: SF-539; experiment: Cytotoxicity against human SF539 cells assessed as growth inhibition at 10 uM; assay type: functional; conditions: read-out: GI
[49] = test system: SR; experiment: Cytotoxicity against human SR cells assessed as growth inhibition at 10 uM; assay type: functional; conditions: read-out: GI
[50] = test system: MDA-MB-468; experiment: Cytotoxicity against human MDA-MB-468 cells assessed as growth inhibition at 10 uM; assay type: functional; conditions: read-out: GI
[51] = test system: SK-OV-3; experiment: Cytotoxicity against human SKOV3 cells assessed as growth inhibition at 10 uM; assay type: functional; conditions: read-out: GI
[52] = test system: PC-3; experiment: Cytotoxicity against human PC3 cells assessed as growth inhibition at 10 uM; assay type: functional; conditions: read-out: GI
[53] = test system: HCT-116; experiment: Cytotoxicity against human HCT116 cells assessed as growth inhibition at 10 uM; assay type: functional; conditions: read-out: GI
[54] = test system: TK-10; experiment: Cytotoxicity against human TK10 cells assessed as growth inhibition at 10 uM; assay type: functional; conditions: read-out: GI
[55] = Cytotoxicity against human UO31 cells assessed as growth inhibition at 10 uM; assay type: functional; conditions: UO-31, read-out: GI
[56] = test system: RXF 393; experiment: Cytotoxicity against human RXF393 cells assessed as growth inhibition at 10 uM; assay type: functional; conditions: read-out: GI
[57] = test system: MDA-MB-435; experiment: Cytotoxicity against human MDA-MB-435 cells assessed as growth inhibition at 10 uM; assay type: functional; conditions: read-out: GI
[58] = test system: IGROV-1; experiment: Cytotoxicity against human IGROV1 cells assessed as growth inhibition at 10 uM; assay type: functional; conditions: read-out: GI
[59] = test system: MDA-MB-231; experiment: Cytotoxicity against human MDA-MB-231 cells assessed as growth inhibition at 10 uM; assay type: functional; conditions: read-out: GI
[60] = test system: HL-60(TB); experiment: Cytotoxicity against human HL-60(TB) cells assessed as growth inhibition at 10 uM; assay type: functional; conditions: read-out: GI
[61] = test system: SNB-75; experiment: Cytotoxicity against human SNB75 cells assessed as growth inhibition at 10 uM; assay type: functional; conditions: read-out: GI
[62] = test system: NCI-H522; experiment: Cytotoxicity against human NCI-H522 cells assessed as growth inhibition at 10 uM; assay type: functional; conditions: read-out: GI

C=C(C)[C@H]1O[C@H]2CC[C@@]3(C)[C@@](O)(CC[C@H]4[C@@H]5OC(C)(C)[C@H]6C[C@@H]7C(=C)Cc8c(Cl)cc9[nH]c(c5c9c8[C@@]76O)[C@@]43C)[C@]23O[C@@H]3[C@H]1O [PENITREM A]
Activity [1]: Non-toxic
Activity [2]: Toxic
Activity [3]: Non-toxic

C=C1Cc2ccc3[nH]c4c5c3c2[C@H]2[C@@H]1C[C@@H]2C(C)(C)O[C@H]5[C@@H]1CC[C@@]2(O)[C@@]35O[C@@H]3[C@@H](O)[C@@H](C(=C)C)O[C@H]5CC[C@]2(C)[C@@]41C [PENITREM B]
inhibition of growth at 10 µM [4]: 48.8%
inhibition of growth at 10 µM [5]: 71.4%
inhibition of growth at 10 µM [6]: 102%
inhibition of growth at 10 µM [7]: 76.8%
inhibition of growth at 10 µM [8]: 73.2%
inhibition of growth at 10 µM [9]: 107%
inhibition of growth at 10 µM [10]: 20.4%
inhibition of growth at 10 µM [11]: 39.5%
inhibition of growth at 10 µM [12]: 44.7%
Activity [1]: Non-toxic
inhibition of growth at 10 µM [13]: 82.3%
inhibition of growth at 10 µM [14]: 43.1%
inhibition of growth at 10 µM [15]: 64.4%
inhibition of growth at 10 µM [16]: 71.8%
inhibition of growth at 10 µM [17]: 63%
inhibition of growth at 10 µM [18]: 38.4%
inhibition of growth at 10 µM [19]: 50.6%
inhibition of growth at 10 µM [20]: 34.5%
inhibition of growth at 10 µM [21]: 70.3%
inhibition of growth at 10 µM [22]: 94%
inhibition of growth at 10 µM [23]: 59.3%
IC50 [24]: 5.5 µM
inhibition of growth at 10 µM [25]: 76.5%
inhibition of growth at 10 µM [26]: 40.9%
inhibition of growth at 10 µM [27]: 94.1%
inhibition of growth at 10 µM [28]: 74.3%
inhibition of growth at 10 µM [29]: 49.2%
inhibition of growth at 10 µM [30]: 36.4%
inhibition of growth at 10 µM [31]: 63.7%
inhibition of growth at 10 µM [32]: 38.6%
IC50 [33]: 10.3 µM
inhibition of growth at 10 µM [34]: 61.1%
inhibition of growth at 10 µM [35]: 48.2%
inhibition of growth at 10 µM [36]: 21.3%
inhibition of growth at 10 µM [37]: 64.1%
inhibition of growth at 10 µM [38]: 19.9%
inhibition of growth at 10 µM [39]: 67.4%
inhibition of growth at 10 µM [40]: 87.8%
inhibition of growth at 10 µM [41]: 66.3%
inhibition of growth at 10 µM [42]: 56.7%
inhibition of growth at 10 µM [43]: 66.3%
IC50 [44]: 13.7 µM
Activity [3]: Non-toxic
inhibition of growth at 10 µM [45]: 64.5%
inhibition at 15 µM [46]: 40%
inhibition of growth at 10 µM [47]: 42.4%
inhibition of growth at 10 µM [48]: 89.8%
inhibition of growth at 10 µM [49]: 45.9%
inhibition of growth at 10 µM [50]: 60.7%
inhibition of growth at 10 µM [51]: 90.3%
inhibition of growth at 10 µM [52]: 27.8%
inhibition of growth at 10 µM [53]: 25.3%
inhibition of growth at 10 µM [54]: 84%
inhibition of growth at 10 µM [55]: 11.5%
inhibition of growth at 10 µM [56]: 70.3%
inhibition of growth at 10 µM [57]: 33.9%
inhibition of growth at 10 µM [58]: 54.9%
inhibition of growth at 10 µM [59]: 77.8%
inhibition of growth at 10 µM [60]: 29%
inhibition of growth at 10 µM [61]: 68.2%
inhibition of growth at 10 µM [62]: 78.5%
